Test: recombinant UMI read abundance after kanamycin selection (control-corrected) (log10(CPM+1)); higher = more efficient recombination; extreme values may be limits of the assay; sequences stand for … in AGTGCAGAGAAAATCGGCCAGTTTTCTCTGCCTGCAGTCCGCATGCCGTGGGACCCCTTGGGTTCTAACCTGTTGCCTAGATTTATGCAGCGGACTGCCTTTCTCCCAAAGTGATAAACCGG…AGGTTGGTTTCACT; site = the 11-nt donor
Method in brief: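 In a pooled Escherichia coli screen for the IS621 bridge recombinase, donor and donor-binding-loop pairs were each placed with a 12-nt UMI on a plasmid bearing a promoterless kanamycin gene. This library was co-electroporated with a target plasmid encoding a fixed target and T7-inducible recombinase, and cells were plated either on IPTG (0.07 mM) plus kanamycin or without selection, in two replicates each. Recombinant UMIs were PCR-amplified across the donor–target junction and sequenced, and counts were converted to CPM, averaged over replicates, scaled by control-derived factors and reported as log10(CPM+1).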

Row | Sequence | recombinant UMI read abundance (log10)
1 | CATAATACATGGACCGGTTTTCCCGGTAATCCGTATTTGGC (site CGTAATACTGC) | 0
2 | CCTAAAGCATGGACCGGTTTTCCCGGTAATCCGTATTTGAT (site CCTATAGCTAT) | 0.00347
3 | ACTAGTGCATGGACCGGTTTTCCCGGTAATCCGTATTTGGA (site ACTAGTGCTCC) | 0.0115
4 | GAACGAACATGGACCGGTTTTCCCGGTAATCCGTATTTGGT (site GAACGAACTAC) | 1.21
5 | CAATTCCCATGGACCGGTTTTCCCGGTAATCCGTATTTGCT (site CAATACCCTAG) | 0.712
6 | TCCCTTACATGGACCGGTTTTCCCGGTAATCCGTATTTGTA (site TCCCTTACTTA) | 0.0182
7 | TTAGCGGCATGGACCGGTTTTCCCGGTAATCCGTATTTGCT (site TTGGCGGCTAG) | 0
8 | AGCCATTCATGGACCGGTTTTCCCGGTAATCCGTATTTGAC (site AGCCATTCTGT) | 2.1
9 | AGGGCTACATGGACCGGTTTTCCCGGTAATCCGTATTTGAC (site AGGTCTACTGT) | 1
10 | CCAACTACATGGACCGGTTTTCCCGGTAATCCGTATTTGAC (site CCAACTACTGT) | 0.998
11 | AGGACTACATGGACCGGTTTTCCCGGTAATCCGTATTTGGC (site AGGACTACTGA) | 0
12 | GGTCCAACATGGACCGGTTTTCCCGGTAATCCGTATTTGAA (site GGTCCAACTTG) | 0
13 | ATCCATGCATGGACCGGTTTTCCCGGTAATCCGTATTTGAG (site ATCCACGCTCT) | 0.0124
14 | GGAGGTACATGGACCGGTTTTCCCGGTAATCCGTATTTGCG (site GGAGGTACTCG) | 1.31
15 | AGGAAAACATGGACCGGTTTTCCCGGTAATCCGTATTTGTA (site AGGAAAACTTA) | 1.92
16 | ATGACATCATGGACCGGTTTTCCCGGTAATCCGTATTTGAT (site ATGACATCTAT) | 2.14
17 | GTTGTTCCATGGACCGGTTTTCCCGGTAATCCGTATTTGGT (site GTTGATCCTAC) | 0.00419
18 | CCAAGGGCATGGACCGGTTTTCCCGGTAATCCGTATTTGCT (site CCAAGGGCTAG) | 0
19 | ACACGAACATGGACCGGTTTTCCCGGTAATCCGTATTTGCC (site ACACGAACTGG) | 2.57

Row | Sequence | recombinant UMI read abundance (log10)
20 | ATTTACACATGGACCGGTTTTCCCGGTAATCCGTATTTGTT (site ATTTACACTAA) | 0.967
21 | CCACTAACATGGACCGGTTTTCCCGGTAATCCGTATTTGGA (site CTACTAACTTC) | 0.0175
22 | CTCGAATCATGGACCGGTTTTCCCGGTAATCCGTATTTGAC (site CTCGAATCTGT) | 1.76
23 | CCGTATACATGGACCGGTTTTCCCGGTAATCCGTATTTGCT (site CCGTTTACTAG) | 0
24 | ATTCCGACATGGACCGGTTTTCCCGGTAATCCGTATTTGTG (site ATTCCGACTCA) | 0.00802
25 | GTAAGCACATGGACCGGTTTTCCCGGTAATCCGTATTTGTA (site GTACGCACTTA) | 0.0491
26 | GGCGCCTCATGGACCGGTTTTCCCGGTAATCCGTATTTGGG (site GGCGCCTCTCC) | 0.0423
27 | CAGAGGCCATGGACCGGTTTTCCCGGTAATCCGTATTTGCT (site CAGAGGCCTAG) | 1.68
28 | CGGGCGTCATGGACCGGTTTTCCCGGTAATCCGTATTTGCC (site CGGGAGTCTGG) | 0
29 | GGGCTCACATGGACCGGTTTTCCCGGTAATCCGTATTTGAT (site GTGCTCACTAT) | 1.11
30 | AGGTCTACATGGACCGGTTTTCCCGGTAATCCGTATTTGAC (site AGGGCTACTGT) | 0.00558
31 | GAAATGGCATGGACCGGTTTTCCCGGTAATCCGTATTTGAC (site GAAATGGCTGT) | 1.42
32 | GCTGAATCATGGACCGGTTTTCCCGGTAATCCGTATTTGCA (site GCTGAATCTTG) | 1.83
33 | GGCGATCCATGGACCGGTTTTCCCGGTAATCCGTATTTGAA (site GGCCATCCTTT) | 0.0198
34 | CTGGAAACATGGACCGGTTTTCCCGGTAATCCGTATTTGCA (site CTGGAAACTAG) | 0
35 | TTTCCAACATGGACCGGTTTTCCCGGTAATCCGTATTTGAA (site TTTCCAACTTT) | 0.0166
36 | AGGTGCCCATGGACCGGTTTTCCCGGTAATCCGTATTTGGA (site AGGTGCCCTTC) | 0.00688
37 | CTAGTATCATGGACCGGTTTTCCCGGTAATCCGTATTTGAC (site CTAGTATCTTT) | 2.1
38 | CGCGGACCATGGACCGGTTTTCCCGGTAATCCGTATTTGGG (site CGGGGACCTCC) | 0.0209

Row | Sequence | recombinant UMI read abundance (log10)
39 | TTCGGTTCATGGACCGGTTTTCCCGGTAATCCGTATTTGGA (site TTCGGTTCTTC) | 0
40 | CAGTTCCCATGGACCGGTTTTCCCGGTAATCCGTATTTGCT (site CAGTTCCCTAG) | 0.863
41 | ACAATAACATGGACCGGTTTTCCCGGTAATCCGTATTTGCA (site ACAGTATCTTG) | 1.03
42 | CAGATAACATGGACCGGTTTTCCCGGTAATCCGTATTTGGG (site CAGATAACTCC) | 1.1
43 | ATTGAGACATGGACCGGTTTTCCCGGTAATCCGTATTTGGT (site ATTAAGACTAC) | 1.62
44 | ATCTCAGCATGGACCGGTTTTCCCGGTAATCCGTATTTGGG (site AGCTCAGCTCC) | 0.0129
45 | TCCAAGTCATGGACCGGTTTTCCCGGTAATCCGTATTTGCC (site TCCAATTCTGG) | 0
46 | CTAGTCGCATGGACCGGTTTTCCCGGTAATCCGTATTTGCG (site ATAGTCGCTCG) | 0.00637
47 | ACTACCCCATGGACCGGTTTTCCCGGTAATCCGTATTTGAC (site ACTACCCCTGT) | 0.736
48 | CCTAAAGCATGGACCGGTTTTCCCGGTAATCCGTATTTGAT (site CCTAAAGCTGT) | 0
49 | CGGGAACCATGGACCGGTTTTCCCGGTAATCCGTATTTGAT (site CGGCAACCTAT) | 0
50 | ATGACTGCATGGACCGGTTTTCCCGGTAATCCGTATTTGCG (site ATGACTGCTCG) | 1.7
51 | CGTTCGACATGGACCGGTTTTCCCGGTAATCCGTATTTGTT (site CGGTCGACTAA) | 0.0244
52 | AGGACTACATGGACCGGTTTTCCCGGTAATCCGTATTTGGC (site AGGACTACTGT) | 1.61
53 | TTAGCTGCATGGACCGGTTTTCCCGGTAATCCGTATTTGTG (site TTATCTGCTCA) | 0.0225
54 | TCTAAAGCATGGACCGGTTTTCCCGGTAATCCGTATTTGAT (site TCTAAAGCTAT) | 0.373
55 | ACCTTAGCATGGACCGGTTTTCCCGGTAATCCGTATTTGGT (site ACCTTAGCTAC) | 0.271
56 | CCGTAGCCATGGACCGGTTTTCCCGGTAATCCGTATTTGCC (site CCATAGCCTGG) | 0
57 | GGATCGACATGGACCGGTTTTCCCGGTAATCCGTATTTGTT (site AGATCGACTAA) | 0.0171

Reference: the supplement of paper PMC11208160
